Experimental data as given in ChEMBL document CHEMBL5696442, “Discovery of type II inhibitors of TGFβ-activated kinase 1 (TAK1) and mitogen-activated protein kinase kinase kinase kinase 2 (MAP4K2)” (J Med Chem, 2015).
Active and inactive are the calls of the source. The calls are words filed in the database; no cut-off is given here.

Legend:
[1] = target: Hepatocyte growth factor receptor (Homo sapiens) (UniProt P08581); test: Inhibition of MET ACT labeling site in human Huh-7 cell lysate at 1 uM by KiNativ Profiling analysis relative to control; type: subcellular
[2] = target: Serine/threonine-protein kinase 25 (Homo sapiens) (UniProt O00506); test: Inhibition of YSK1 Lys2 labeling site in human Huh-7 cell lysate at 1 uM by KiNativ Profiling analysis relative to control; type: subcellular
[3] = target: Serine/threonine-protein kinase 38 (Homo sapiens) (UniProt Q15208); test: Inhibition of NDR1 Lys1 labeling site in human Huh-7 cells at 1 uM by KiNativ Profiling analysis relative to control; type: cell-based
[4] = tested on: Tyrosine-protein kinase ABL1 (Homo sapiens), P00519 [Y253F]; test: Inhibition of ABL1 Y253F mutant (unknown origin) at 10 uM by Ambit Kinomescan binding assay relative to control
[5] = target: Insulin receptor-related protein (Homo sapiens) (UniProt P14616); test: Inhibition of INSRR (unknown origin) at 10 uM by Ambit Kinomescan binding assay relative to control
[6] = target: Dual specificity testis-specific protein kinase 1 (Homo sapiens) (UniProt Q15569); test: Inhibition of TESK1 (unknown origin) at 10 uM by Ambit Kinomescan binding assay
[7] = target: Cyclin-dependent kinase 16 (Homo sapiens) (UniProt Q00536); test: Inhibition of PFTAIRE1 Lys2 labeling site in human A-375 cells at 0.5 uM by KiNativ Profiling analysis relative to control; type: cell-based
[8] = target: T1, Eukaryotic elongation factor 2 kinase (Homo sapiens) (UniProt O00418); test: Inhibition of eEF2K ATP labeling site harbouring YIKYNSNSGFVR in human A-375 cells at 0.05 uM by KiNativ Profiling analysis relative to control; type: cell-based
T1 sequence (whole entry): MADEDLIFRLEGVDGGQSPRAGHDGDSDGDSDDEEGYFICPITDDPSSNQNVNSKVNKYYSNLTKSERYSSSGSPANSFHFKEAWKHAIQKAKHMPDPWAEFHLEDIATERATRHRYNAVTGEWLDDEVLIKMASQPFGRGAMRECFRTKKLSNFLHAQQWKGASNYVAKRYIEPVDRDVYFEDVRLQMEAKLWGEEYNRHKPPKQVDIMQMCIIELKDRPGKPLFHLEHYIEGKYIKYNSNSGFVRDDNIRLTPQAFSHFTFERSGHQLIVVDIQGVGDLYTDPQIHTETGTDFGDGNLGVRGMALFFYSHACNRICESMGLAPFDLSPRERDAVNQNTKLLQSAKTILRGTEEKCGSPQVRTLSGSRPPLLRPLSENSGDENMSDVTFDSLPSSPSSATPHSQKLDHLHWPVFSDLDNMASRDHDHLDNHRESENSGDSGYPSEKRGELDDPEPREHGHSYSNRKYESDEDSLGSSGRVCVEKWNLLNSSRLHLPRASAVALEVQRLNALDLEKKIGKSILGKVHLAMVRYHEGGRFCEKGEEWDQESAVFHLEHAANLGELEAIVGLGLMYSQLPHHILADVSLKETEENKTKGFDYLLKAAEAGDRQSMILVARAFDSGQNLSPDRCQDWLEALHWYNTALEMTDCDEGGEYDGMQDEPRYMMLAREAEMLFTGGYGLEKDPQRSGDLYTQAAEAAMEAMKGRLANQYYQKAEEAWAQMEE

[9] = target: Phosphatidylinositol 4,5-bisphosphate 3-kinase catalytic subunit beta isoform (Homo sapiens) (UniProt P42338); test: Inhibition of PIK3CB ATP labeling site in human Huh-7 cells at 10 uM by KiNativ Profiling analysis relative to control; type: cell-based
[10] = target: Serine/threonine-protein kinase SMG1 (Homo sapiens) (UniProt Q96Q15); test: Inhibition of SMG1 ATP labeling site in human Huh-7 cells at 1 uM by KiNativ Profiling analysis relative to control; type: cell-based
[11] = target: T2, Receptor-interacting serine/threonine-protein kinase 4 (Homo sapiens) (UniProt P57078); test: Inhibition of ANKRD3 Lys1 labeling site in human A-375 cells at 5 uM by KiNativ Profiling analysis relative to control; type: cell-based
T2 sequence (whole entry): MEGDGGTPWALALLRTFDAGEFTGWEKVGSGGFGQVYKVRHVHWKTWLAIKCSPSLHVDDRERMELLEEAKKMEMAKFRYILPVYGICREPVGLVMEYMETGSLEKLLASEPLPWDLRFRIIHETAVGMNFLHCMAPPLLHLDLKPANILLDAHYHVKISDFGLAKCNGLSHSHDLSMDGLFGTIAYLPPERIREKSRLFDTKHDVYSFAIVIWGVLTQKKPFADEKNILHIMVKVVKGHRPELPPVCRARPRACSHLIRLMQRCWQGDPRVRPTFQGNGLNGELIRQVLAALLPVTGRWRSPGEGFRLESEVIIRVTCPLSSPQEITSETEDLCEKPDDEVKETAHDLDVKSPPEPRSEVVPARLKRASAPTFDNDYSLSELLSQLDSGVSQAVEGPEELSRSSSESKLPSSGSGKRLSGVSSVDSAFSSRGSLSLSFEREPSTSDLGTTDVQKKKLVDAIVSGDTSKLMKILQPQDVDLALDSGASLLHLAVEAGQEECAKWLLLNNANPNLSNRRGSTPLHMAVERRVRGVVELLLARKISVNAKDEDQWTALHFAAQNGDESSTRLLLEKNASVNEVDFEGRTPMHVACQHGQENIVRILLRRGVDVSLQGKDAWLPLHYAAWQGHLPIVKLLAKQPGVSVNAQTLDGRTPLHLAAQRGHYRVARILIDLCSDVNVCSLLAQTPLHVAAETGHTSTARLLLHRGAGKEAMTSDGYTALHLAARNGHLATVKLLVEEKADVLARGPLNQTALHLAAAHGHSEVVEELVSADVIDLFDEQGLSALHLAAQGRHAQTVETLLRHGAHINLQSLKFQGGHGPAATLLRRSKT

[12] = target: Serine/threonine-protein kinase 38-like (Homo sapiens) (UniProt Q9Y2H1); test: Inhibition of NDR2 Lys2 labeling site in human A-375 cells at 5 uM by KiNativ Profiling analysis relative to control; type: cell-based
[13] = target: Proto-oncogene tyrosine-protein kinase Src (Homo sapiens, UniProt P12931); test: Inhibition of SRC ACT labeling site in human A-375 cells at 0.05 uM by KiNativ Profiling analysis relative to control; type: cell-based
[14] = target: Cyclin-dependent kinase 3 (Homo sapiens) (UniProt Q00526); test: Inhibition of CDK3 (unknown origin) at 1 uM by Ambit Kinomescan binding assay relative to control; values are per cent of control
[15] = target: Homeodomain-interacting protein kinase 3 (Homo sapiens) (UniProt Q9H422); test: Inhibition of HIPK3 (unknown origin) at 1 uM by Ambit Kinomescan binding assay relative to control; values are per cent of control
Homeodomain-interacting protein kinase 3 (Homo sapiens), sequence (Q9H422 whole entry, looked up): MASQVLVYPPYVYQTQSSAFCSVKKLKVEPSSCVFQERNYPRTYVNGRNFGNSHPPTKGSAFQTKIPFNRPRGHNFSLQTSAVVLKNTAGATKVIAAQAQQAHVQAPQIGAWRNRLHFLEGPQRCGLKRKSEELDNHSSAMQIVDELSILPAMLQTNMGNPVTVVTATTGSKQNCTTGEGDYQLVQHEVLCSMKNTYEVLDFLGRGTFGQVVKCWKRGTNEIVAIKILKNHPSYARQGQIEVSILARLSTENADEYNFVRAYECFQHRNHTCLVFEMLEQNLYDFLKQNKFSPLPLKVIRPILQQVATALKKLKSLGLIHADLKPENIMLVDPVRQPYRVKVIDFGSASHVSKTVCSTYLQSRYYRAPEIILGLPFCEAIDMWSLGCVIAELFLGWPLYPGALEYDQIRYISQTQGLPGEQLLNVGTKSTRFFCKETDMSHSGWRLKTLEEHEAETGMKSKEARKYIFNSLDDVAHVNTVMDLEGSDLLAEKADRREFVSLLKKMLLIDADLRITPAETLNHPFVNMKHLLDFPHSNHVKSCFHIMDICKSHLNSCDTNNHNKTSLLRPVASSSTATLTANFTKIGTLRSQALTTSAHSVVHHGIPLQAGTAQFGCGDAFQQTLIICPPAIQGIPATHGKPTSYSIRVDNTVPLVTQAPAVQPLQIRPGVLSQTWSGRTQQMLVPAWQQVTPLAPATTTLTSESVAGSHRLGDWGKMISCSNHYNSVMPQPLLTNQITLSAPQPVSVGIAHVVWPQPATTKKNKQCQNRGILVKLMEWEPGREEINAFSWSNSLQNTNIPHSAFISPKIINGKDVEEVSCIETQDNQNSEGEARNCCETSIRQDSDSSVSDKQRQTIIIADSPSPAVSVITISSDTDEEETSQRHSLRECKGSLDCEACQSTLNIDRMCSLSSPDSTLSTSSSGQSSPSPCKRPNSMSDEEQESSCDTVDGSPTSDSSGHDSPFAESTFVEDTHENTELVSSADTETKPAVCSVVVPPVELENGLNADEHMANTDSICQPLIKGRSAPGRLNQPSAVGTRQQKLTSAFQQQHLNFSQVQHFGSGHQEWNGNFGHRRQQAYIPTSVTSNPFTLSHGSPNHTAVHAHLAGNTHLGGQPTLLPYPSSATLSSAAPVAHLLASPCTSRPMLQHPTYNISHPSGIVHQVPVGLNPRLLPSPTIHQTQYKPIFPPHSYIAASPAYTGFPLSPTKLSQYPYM

Phosphatidylinositol 4,5-bisphosphate 3-kinase catalytic subunit beta isoform (Homo sapiens), sequence (P42338 whole entry, looked up, canonical isoform): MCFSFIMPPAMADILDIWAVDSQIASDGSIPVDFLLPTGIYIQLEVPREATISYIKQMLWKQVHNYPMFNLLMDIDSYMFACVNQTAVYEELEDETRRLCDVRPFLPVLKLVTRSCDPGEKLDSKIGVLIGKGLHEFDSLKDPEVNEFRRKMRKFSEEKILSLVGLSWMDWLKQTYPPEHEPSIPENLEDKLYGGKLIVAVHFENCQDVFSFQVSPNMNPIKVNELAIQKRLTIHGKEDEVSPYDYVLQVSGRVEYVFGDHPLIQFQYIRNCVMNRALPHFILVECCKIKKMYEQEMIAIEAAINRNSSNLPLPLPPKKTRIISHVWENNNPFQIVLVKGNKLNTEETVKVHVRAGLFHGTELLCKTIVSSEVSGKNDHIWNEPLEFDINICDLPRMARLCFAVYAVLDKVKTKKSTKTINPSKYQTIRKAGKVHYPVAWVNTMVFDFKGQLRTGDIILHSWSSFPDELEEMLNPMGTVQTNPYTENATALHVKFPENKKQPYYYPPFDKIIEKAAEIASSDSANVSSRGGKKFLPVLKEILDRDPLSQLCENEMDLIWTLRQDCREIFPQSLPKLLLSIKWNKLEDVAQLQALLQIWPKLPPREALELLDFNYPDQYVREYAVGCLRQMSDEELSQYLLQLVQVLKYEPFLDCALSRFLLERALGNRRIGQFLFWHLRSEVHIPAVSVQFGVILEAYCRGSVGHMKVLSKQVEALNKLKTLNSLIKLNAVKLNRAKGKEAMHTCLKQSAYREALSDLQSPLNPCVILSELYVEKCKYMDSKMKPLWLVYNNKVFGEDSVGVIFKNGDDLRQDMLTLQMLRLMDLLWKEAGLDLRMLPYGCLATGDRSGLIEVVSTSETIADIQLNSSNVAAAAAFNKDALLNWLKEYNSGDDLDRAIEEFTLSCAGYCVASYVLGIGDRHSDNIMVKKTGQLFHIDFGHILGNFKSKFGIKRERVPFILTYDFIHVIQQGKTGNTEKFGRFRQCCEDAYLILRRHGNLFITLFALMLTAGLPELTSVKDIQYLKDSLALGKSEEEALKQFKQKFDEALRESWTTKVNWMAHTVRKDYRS
Insulin receptor-related protein (Homo sapiens), sequence (P14616 27-742 limits assumed): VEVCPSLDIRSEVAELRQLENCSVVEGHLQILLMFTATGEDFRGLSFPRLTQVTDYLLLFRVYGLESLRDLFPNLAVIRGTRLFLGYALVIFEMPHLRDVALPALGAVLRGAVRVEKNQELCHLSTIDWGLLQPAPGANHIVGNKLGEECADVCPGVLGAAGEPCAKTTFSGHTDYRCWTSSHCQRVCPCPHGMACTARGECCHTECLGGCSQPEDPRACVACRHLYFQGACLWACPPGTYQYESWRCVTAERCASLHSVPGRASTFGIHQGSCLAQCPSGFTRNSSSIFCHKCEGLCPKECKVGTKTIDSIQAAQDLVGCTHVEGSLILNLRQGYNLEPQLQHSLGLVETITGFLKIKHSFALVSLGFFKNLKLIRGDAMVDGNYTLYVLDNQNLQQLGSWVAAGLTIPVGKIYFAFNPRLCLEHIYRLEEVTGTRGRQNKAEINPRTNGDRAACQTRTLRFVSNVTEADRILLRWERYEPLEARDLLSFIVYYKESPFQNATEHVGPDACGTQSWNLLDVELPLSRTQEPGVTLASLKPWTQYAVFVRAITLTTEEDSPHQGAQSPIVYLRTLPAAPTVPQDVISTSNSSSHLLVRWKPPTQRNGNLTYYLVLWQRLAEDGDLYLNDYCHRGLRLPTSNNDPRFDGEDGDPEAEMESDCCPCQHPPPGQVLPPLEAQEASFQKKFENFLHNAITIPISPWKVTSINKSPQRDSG
Insulin receptor-related protein (Homo sapiens), sequence (P14616 747-1297 limits assumed): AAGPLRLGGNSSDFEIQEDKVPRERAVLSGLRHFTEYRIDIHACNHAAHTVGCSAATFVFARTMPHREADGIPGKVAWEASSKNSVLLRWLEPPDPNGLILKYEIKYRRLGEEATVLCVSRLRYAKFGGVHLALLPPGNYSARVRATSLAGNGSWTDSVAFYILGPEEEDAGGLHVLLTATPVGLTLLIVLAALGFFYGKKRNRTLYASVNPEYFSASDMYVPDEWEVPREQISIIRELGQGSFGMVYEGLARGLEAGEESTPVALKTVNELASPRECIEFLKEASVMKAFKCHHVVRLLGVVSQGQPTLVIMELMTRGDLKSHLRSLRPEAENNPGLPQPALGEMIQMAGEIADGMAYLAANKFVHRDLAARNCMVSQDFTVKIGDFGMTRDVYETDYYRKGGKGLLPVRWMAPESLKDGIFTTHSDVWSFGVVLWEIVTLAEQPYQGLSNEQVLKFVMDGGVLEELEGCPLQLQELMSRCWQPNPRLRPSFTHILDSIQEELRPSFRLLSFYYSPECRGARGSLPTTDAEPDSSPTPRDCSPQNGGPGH
Cyclin-dependent kinase 16 (Homo sapiens), sequence (Q00536 whole entry): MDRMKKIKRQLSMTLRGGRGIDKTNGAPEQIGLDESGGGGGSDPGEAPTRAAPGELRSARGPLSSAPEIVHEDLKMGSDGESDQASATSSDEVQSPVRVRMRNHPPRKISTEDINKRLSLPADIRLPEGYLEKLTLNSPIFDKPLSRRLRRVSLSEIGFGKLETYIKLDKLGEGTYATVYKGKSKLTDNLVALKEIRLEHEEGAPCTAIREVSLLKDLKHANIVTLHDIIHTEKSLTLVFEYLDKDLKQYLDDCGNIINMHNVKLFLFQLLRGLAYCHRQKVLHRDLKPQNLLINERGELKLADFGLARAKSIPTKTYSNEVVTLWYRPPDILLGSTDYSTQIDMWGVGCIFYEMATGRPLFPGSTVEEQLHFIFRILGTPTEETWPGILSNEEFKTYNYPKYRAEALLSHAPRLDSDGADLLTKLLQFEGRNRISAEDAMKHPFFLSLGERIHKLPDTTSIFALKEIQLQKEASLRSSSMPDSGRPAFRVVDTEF
Serine/threonine-protein kinase 25 (Homo sapiens), sequence (O00506 whole entry, looked up): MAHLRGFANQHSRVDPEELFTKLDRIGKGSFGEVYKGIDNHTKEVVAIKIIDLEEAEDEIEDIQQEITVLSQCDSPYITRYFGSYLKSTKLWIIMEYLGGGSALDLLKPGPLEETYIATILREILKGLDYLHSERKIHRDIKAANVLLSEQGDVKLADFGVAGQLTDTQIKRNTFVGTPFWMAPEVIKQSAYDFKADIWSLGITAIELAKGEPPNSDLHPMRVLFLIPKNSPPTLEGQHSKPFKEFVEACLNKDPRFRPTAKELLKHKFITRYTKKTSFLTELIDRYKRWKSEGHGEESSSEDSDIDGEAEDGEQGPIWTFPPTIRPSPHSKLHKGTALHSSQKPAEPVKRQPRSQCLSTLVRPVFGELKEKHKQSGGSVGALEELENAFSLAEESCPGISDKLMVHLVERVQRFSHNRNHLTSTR
Serine/threonine-protein kinase 38 (Homo sapiens), sequence (Q15208 2-465 limits assumed): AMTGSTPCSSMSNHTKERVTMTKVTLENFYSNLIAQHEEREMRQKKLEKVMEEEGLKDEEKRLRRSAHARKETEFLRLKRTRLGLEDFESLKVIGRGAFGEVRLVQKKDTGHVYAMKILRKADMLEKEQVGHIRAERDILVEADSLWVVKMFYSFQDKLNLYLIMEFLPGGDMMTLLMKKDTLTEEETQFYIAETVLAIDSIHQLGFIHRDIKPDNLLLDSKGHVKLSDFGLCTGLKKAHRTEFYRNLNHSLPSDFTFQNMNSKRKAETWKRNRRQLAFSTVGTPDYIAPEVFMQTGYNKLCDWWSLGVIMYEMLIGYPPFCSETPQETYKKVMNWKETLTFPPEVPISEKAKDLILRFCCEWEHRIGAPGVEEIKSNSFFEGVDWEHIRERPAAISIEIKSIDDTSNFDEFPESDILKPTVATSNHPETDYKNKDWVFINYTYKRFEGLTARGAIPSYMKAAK

CNc1cc(Oc2cc(C(=O)Nc3cc(N4CCN(C)CC4)cc(C(F)(F)F)c3)ccc2C)ncn1
inhibition [1]: 2% | inhibition [2]: -0.3% | inhibition [3]: 16.4%

CCN1CCN(Cc2ccc(NC(=O)c3ccc(C)c(Oc4ccnc5[nH]ccc45)c3)cc2C(F)(F)F)CC1
inhibition [4]: 1.1% | inhibition [5]: 23% | inhibition [6]: inactive | inhibition [7]: 33.6% | inhibition [8]: 12.7% | inhibition [9]: inactive | inhibition [10]: 13%

CCN1CCN(Cc2ccc(NC(=O)c3ccc(C)c(/C=C/c4cnc5[nH]ccc5c4OC)c3)cc2C(F)(F)F)CC1
inhibition [11]: 17% | inhibition [12]: 20.9% | inhibition [13]: 38.9% | % of control [14]: 100% | residual activity [15]: 80%
